The supplement of paper PMC10307832

Legend:
Assay in all cases: relative viability (nuclei count vs DMSO), 5 days (fraction); higher = more cells survive
201T = system: 201T
How it was run: (§1)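 Relative viability was taken as the ratio of nuclei in treated wells to nuclei in vehicle wells. Lung cancer cell lines in 1536-well plates received compounds by pin tool one day after seeding, either one drug alone or a fixed anchor-drug dose plus five library-drug doses (not always all listed) in √10 steps. Nuclei were counted on 4× images after 5 days of treatment, and values are medians of duplicate plates.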

BEN = system: BEN
How it was run: as §1

COR-L 105 = system: COR-L 105
How it was run: as §1

EKVX = system: EKVX
How it was run: as §1

EPLC-272H = system: EPLC-272H
How it was run: as §1

H3255 = system: H3255
How it was run: as §1

HCC-44 = system: HCC-44
How it was run: as §1

HCC-827 = system: HCC-827
How it was run: as §1

HOP-62 = system: HOP-62
How it was run: as §1

LCLC-97TM1 = system: LCLC-97TM1
How it was run: as §1

LOU-NH91 = system: LOU-NH91
How it was run: as §1

LU99A = system: LU99A
How it was run: as §1

NCI-H1395 = system: NCI-H1395
How it was run: as §1

NCI-H1437 = system: NCI-H1437
How it was run: as §1

NCI-H1666 = system: NCI-H1666
How it was run: as §1

NCI-H1975 = system: NCI-H1975
How it was run: as §1

NCI-H2085 = system: NCI-H2085
How it was run: as §1

NCI-H2087 = system: NCI-H2087
How it was run: as §1

NCI-H2342 = system: NCI-H2342
How it was run: as §1

NCI-H358 = system: NCI-H358
How it was run: as §1

NCI-H647 = system: NCI-H647
How it was run: as §1

PC-3 [JPC-3] = system: PC-3 [JPC-3]
How it was run: as §1

SW 1573 = system: SW 1573
How it was run: as §1

## CC1(C)CCC(c2ccc(Cl)cc2)=C(CN2CCN(c3ccc(C(=O)NS(=O)(=O)c4ccc(N[C@H](CCN5CCOCC5)CSc5ccccc5)c(S(=O)(=O)C(F)(F)F)c4)cc3)CC2)C1 [Navitoclax] + O=C(CCCCCCC(=O)Nc1ccccc1)NO [Vorinostat] (partner 1 µM)
201T; first compound 0.005 µM
  relative viability: 1.05
201T; first compound 0.01581 µM
  relative viability: 1.12
201T; first compound 0.05 µM
  relative viability: 0.89
201T; first compound 0.1581 µM
  relative viability: 0.937
201T; first compound 0.5 µM
  relative viability: 1.02
BEN; first compound 0.005 µM
  relative viability: 0.617
BEN; first compound 0.01581 µM
  relative viability: 0.658
BEN; first compound 0.05 µM
  relative viability: 0.593
BEN; first compound 0.1581 µM
  relative viability: 0.572
BEN; first compound 0.5 µM
  relative viability: 0.417
COR-L 105; first compound 0.005 µM
  relative viability: 0.853
COR-L 105; first compound 0.01581 µM
  relative viability: 0.946
COR-L 105; first compound 0.05 µM
  relative viability: 0.858
COR-L 105; first compound 0.1581 µM
  relative viability: 0.778
COR-L 105; first compound 0.5 µM
  relative viability: 0.745
EKVX; first compound 0.005 µM
  relative viability: 0.735
EKVX; first compound 0.01581 µM
  relative viability: 0.911
EKVX; first compound 0.05 µM
  relative viability: 0.668
EKVX; first compound 0.1581 µM
  relative viability: 0.711
EKVX; first compound 0.5 µM
  relative viability: 0.79
EPLC-272H; first compound 0.005 µM
  relative viability: 0.521
EPLC-272H; first compound 0.01581 µM
  relative viability: 0.561
EPLC-272H; first compound 0.05 µM
  relative viability: 0.292
EPLC-272H; first compound 0.1581 µM
  relative viability: 0.385
EPLC-272H; first compound 0.5 µM
  relative viability: 0.282
H3255; first compound 0.005 µM
  relative viability: 0.787
H3255; first compound 0.01581 µM
  relative viability: 0.958
H3255; first compound 0.05 µM
  relative viability: 0.874
H3255; first compound 0.1581 µM
  relative viability: 0.794
H3255; first compound 0.5 µM
  relative viability: 0.586
HCC-44; first compound 0.005 µM
  relative viability: 1.13
HCC-44; first compound 0.01581 µM
  relative viability: 1.07
HCC-44; first compound 0.05 µM
  relative viability: 0.988
HCC-44; first compound 0.1581 µM
  relative viability: 1.12
HCC-44; first compound 0.5 µM
  relative viability: 1.09
HCC-827; first compound 0.005 µM
  relative viability: 0.951
HCC-827; first compound 0.01581 µM
  relative viability: 0.902
HCC-827; first compound 0.05 µM
  relative viability: 0.619
HCC-827; first compound 0.1581 µM
  relative viability: 0.77
HCC-827; first compound 0.5 µM
  relative viability: 0.907
HOP-62; first compound 0.005 µM
  relative viability: 0.669
HOP-62; first compound 0.01581 µM
  relative viability: 0.644
HOP-62; first compound 0.05 µM
  relative viability: 0.618
HOP-62; first compound 0.1581 µM
  relative viability: 0.529
HOP-62; first compound 0.5 µM
  relative viability: 0.842
LCLC-97TM1; first compound 0.005 µM
  relative viability: 0.857
LCLC-97TM1; first compound 0.01581 µM
  relative viability: 0.745
LCLC-97TM1; first compound 0.05 µM
  relative viability: 0.659
LCLC-97TM1; first compound 0.1581 µM
  relative viability: 0.717
LCLC-97TM1; first compound 0.5 µM
  relative viability: 0.979
LOU-NH91; first compound 0.005 µM
  relative viability: 0.956
LOU-NH91; first compound 0.01581 µM
  relative viability: 0.925
LOU-NH91; first compound 0.05 µM
  relative viability: 0.791
LOU-NH91; first compound 0.1581 µM
  relative viability: 0.639
LOU-NH91; first compound 0.5 µM
  relative viability: 0.437
LU99A; first compound 0.005 µM
  relative viability: 0.487
LU99A; first compound 0.01581 µM
  relative viability: 0.451
LU99A; first compound 0.1581 µM
  relative viability: 0.539
LU99A; first compound 0.5 µM
  relative viability: 0.469
NCI-H1395; first compound 0.005 µM
  relative viability: 0.653
NCI-H1395; first compound 0.01581 µM
  relative viability: 0.862
NCI-H1395; first compound 0.05 µM
  relative viability: 0.802
NCI-H1395; first compound 0.1581 µM
  relative viability: 0.682
NCI-H1395; first compound 0.5 µM
  relative viability: 0.659
NCI-H1437; first compound 0.005 µM
  relative viability: 0.834
NCI-H1437; first compound 0.01581 µM
  relative viability: 0.888
NCI-H1437; first compound 0.05 µM
  relative viability: 0.847
NCI-H1437; first compound 0.1581 µM
  relative viability: 0.88
NCI-H1437; first compound 0.5 µM
  relative viability: 0.808
NCI-H1666; first compound 0.005 µM
  relative viability: 1
NCI-H1666; first compound 0.01581 µM
  relative viability: 1.04
NCI-H1666; first compound 0.05 µM
  relative viability: 1.03
NCI-H1666; first compound 0.1581 µM
  relative viability: 0.999
NCI-H1666; first compound 0.5 µM
  relative viability: 1.05
NCI-H1975; first compound 0.005 µM
  relative viability: 0.718
NCI-H1975; first compound 0.01581 µM
  relative viability: 0.765
NCI-H1975; first compound 0.05 µM
  relative viability: 0.752
NCI-H1975; first compound 0.1581 µM
  relative viability: 0.718
NCI-H1975; first compound 0.5 µM
  relative viability: 0.592
NCI-H2085; first compound 0.005 µM
  relative viability: 0.817
NCI-H2085; first compound 0.01581 µM
  relative viability: 0.998
NCI-H2085; first compound 0.05 µM
  relative viability: 0.568
NCI-H2085; first compound 0.1581 µM
  relative viability: 0.844
NCI-H2085; first compound 0.5 µM
  relative viability: 0.834
NCI-H2087; first compound 0.005 µM
  relative viability: 0.675
NCI-H2087; first compound 0.01581 µM
  relative viability: 0.467
NCI-H2087; first compound 0.1581 µM
  relative viability: 0.853
NCI-H2087; first compound 0.5 µM
  relative viability: 0.848
NCI-H2342; first compound 0.005 µM
  relative viability: 0.752
NCI-H2342; first compound 0.01581 µM
  relative viability: 0.732
NCI-H2342; first compound 0.05 µM
  relative viability: 0.814
NCI-H2342; first compound 0.1581 µM
  relative viability: 0.804
NCI-H2342; first compound 0.5 µM
  relative viability: 0.779
NCI-H358; first compound 0.005 µM
  relative viability: 0.705
NCI-H358; first compound 0.01581 µM
  relative viability: 0.816
NCI-H358; first compound 0.05 µM
  relative viability: 0.689
NCI-H358; first compound 0.1581 µM
  relative viability: 0.652
NCI-H358; first compound 0.5 µM
  relative viability: 0.848
NCI-H647; first compound 0.005 µM
  relative viability: 0.536
NCI-H647; first compound 0.01581 µM
  relative viability: 0.52
NCI-H647; first compound 0.05 µM
  relative viability: 0.673
NCI-H647; first compound 0.1581 µM
  relative viability: 0.405
NCI-H647; first compound 0.5 µM
  relative viability: 0.512
PC-3 [JPC-3]; first compound 0.005 µM
  relative viability: 0.874
PC-3 [JPC-3]; first compound 0.01581 µM
  relative viability: 0.868
PC-3 [JPC-3]; first compound 0.05 µM
  relative viability: 0.877
PC-3 [JPC-3]; first compound 0.1581 µM
  relative viability: 0.817
PC-3 [JPC-3]; first compound 0.5 µM
  relative viability: 0.499
SW 1573; first compound 0.005 µM
  relative viability: 0.607
SW 1573; first compound 0.01581 µM
  relative viability: 0.9
SW 1573; first compound 0.05 µM
  relative viability: 0.683
SW 1573; first compound 0.1581 µM
  relative viability: 0.475
SW 1573; first compound 0.5 µM
  relative viability: 0.597
